Earlier results on one substance are cited in US20090155200A1, “Methods of promoting cartilage healing or cartilage integration” (priority 2004, published 2009).

In this series the test system is articular cartilage defect. The settings on record: pre-treatment with trypsin; Chen et al. 2000.

For the substance trypsin, the “integration and remodeling of implanted cartilage” value was “improved”.
